Tests used:
[1] = tested on: MDCKII-par cells; test: substrate accumulation in control MDCKII-par cells; type: cell-based, canine; settings: hoechst 33342, calcein AM, daunorubicin, mitoxantrone
Procedure: Cellular accumulation assay with hoechst 33342 and calcein AM was performed as described previously. Briefly, MDCKII-par, MDCKII-ABCB1, MDCKII-ABCG2, and MDCKII-ABCC1 cells were seeded at densities of 5.0 × 10^4, 5.0 × 10^4, 5.5 × 10^4, and 6.0 × 10^4 cells/well, respectively, on a transparent 96-well plate and grown to full confluence for 24 h under standard conditions. The cells were then washed twice with 1 × PBS, after which was added either a dilution of ensartinib in Opti-MEM (1, 5, 10, 25, or 50 µM) or a specific inhibitor to act as a positive control (1 µM LY335979, 1 µM Ko143, or 25 µM MK-571 for ABCB1, ABCG2, or ABCC1, respectively). […] The intracellular levels of the substrates were then determined at 1 min intervals for 30 min using a microplate reader (Infinite M200 Pro, Tecan, Männedorf, Switzerland). Fluorescence was monitored in bottom mode using excitation/emission wavelengths of 350/465 and 485/535 nm for hoechst 33342 and calcein AM, respectively.
The flow-cytometric inhibitory assay with daunorubicin and mitoxantrone was performed with minor modifications as described previously. […] Samples were then transferred into test-tubes and kept on ice until their fluorescence could be measured using a flow cytometer (BD FACSCanto II, Allschwil, Switzerland). […]

[2] = target: T1, CYP2D6 (Homo sapiens, UniProt P10635); test: Vivid CYP screening kit, recombinant CYP2D6; type: biochemical; settings: recombinant enzyme
T1 construct: purchased Thermo Fisher Scientific; host or cells: insect microsomal fractions
Procedure: (§1) CYP inhibitory assay was performed as described previously. Experiments were performed with commercial Vivid CYP screening kits containing insect microsomal fractions enriched with a specific human CYP isoform, human CYP reductase, and in some cases, human cytochrome b5. The potential inhibitory activity of ensartinib toward CYP1A2, CYP2B6, CYP2C8, CYP2C9, CYP2C19, CYP2D6, CYP3A4, and CYP3A5 (i.e., all CYP isoforms that drug regulatory authorities recommend for testing of inhibition by new molecular entities) was then examined. Experiments were performed using a kinetic mode in black 96-well plates according to the manufacturer´s instructions. Briefly, 5-point serial dilutions of ensartinib or the model inhibitor recommended by the manufacturer in buffer were transferred into the wells, then a master mix consisting of a CYP isoenzyme with an NADPH regeneration system in buffer was added. After a 10 min pre-incubation, the reaction was initiated by adding a mixture of NADP^+ and the appropriate Vivid substrate, after which fluorescence was measured at 1 min intervals for 60 min using an Infinite M200 Pro microplate reader (Tecan, Männedorf, Switzerland). The enzyme concentration and incubation interval used for data evaluation (15 min) placed the systems within the linear regions of the appropriate reaction velocity curves. […]

[3] = tested on: HL60-ABCC1 cells; test: XTT proliferation assay, HL60-ABCC1; type: cell-based; settings: Homo sapiens, 48 h, read-out: IC50, sensitivity to ensartinib
Procedure: The MTT method is not readily adapted for use with suspension cell cultures, therefore the XTT assay was used to assess the proliferation of HL60 cells. Briefly, HL60-par, HL60-ABCB1, HL60-ABCG2, and HL60-ABCC1 cells were seeded at 2 × 10^4 cells/well in 96-well culture plates. Immediately after seeding, dilutions of the tested drugs or drug combinations were added to the cells. The plates were then incubated under standard conditions (37 °C, 5% CO2) for 48 h, after which XTT solution in PBS (1 mg/mL) and phenazine methosulfate (7.50 µg/mL) were added to the cells and the plates were incubated for another 5 h. Finally, the cells’ absorbance was measured at 450 nm using a microplate reader (Infinite M200, Tecan, Salzburg, Austria). This method was used to assess the effect of ABC transporters on sensitivity to ensartinib and in drug combination assays.

[4] = tested on: A431-ABCC1 cells; test: MTT proliferation assay, A431-ABCC1; type: cell-based; settings: Homo sapiens, 48 h, read-out: IC50, sensitivity to ensartinib
Procedure: MTT proliferation assay was performed as described previously.

[5] = tested on: ABCB1, ABCG2, ABCC1 mRNA; test: Gene induction study (qRT-PCR), ABC transporter mRNA; type: cell-based, human; settings: 0.5 µM ensartinib; 24 and 48 h; Caco-2, LS174T, A549, NCI-H1299 cells
Procedure: Gene induction studies were performed with minor modifications as described recently. Although all gene induction studies involved the use of quantitative real-time reverse transcription PCR (qRT-PCR) to measure mRNA levels, the methods used for specific cell lines varied considerably. Therefore, they are described separately.
For transporter-oriented studies, A549 (24 × 10^4 cells/well), NCI-H1299 (18 × 10^4 cells/well), Caco-2 (50 × 10^4 cells/well), or LS174T (100 × 10^4 cells/well) cells were plated in 12-well plates 24 h before the experiment. Subsequently, the medium was replaced with fresh medium containing 0.5 µM ensartinib, 25 µM rifampicin, or 0.1% DMSO (vehicle control). […] The RNA yield was measured using a NanoDrop ND-1000 spectrophotometer (American Laboratory Trading, East Lyme, CT, USA) while RNA quality and integrity were verified by agarose gel electrophoresis. […] The expression of ABCB1, ABCG2 and ABCC1 was assessed using gb Easy PCR Master Mix and TaqMan qRT-PCR systems in 384-well plates according to the manufacturer´s instructions, amplifying 20 ng of cDNA per reaction. qRT-PCR was performed using QuantStudio 6 (Life Technologies, Carlsbad, CA, USA) with predefined thermal cycling conditions (95 °C for 3 min then 40 repeats of a cycle of 95 °C for 10 s and 60 °C for 20 s). […]

[6] = target: CYP3A4 (Homo sapiens, UniProt P08684); test: Vivid CYP screening kit, recombinant CYP3A4; type: biochemical; design: purchased Thermo Fisher Scientific; host or cells: insect microsomal fractions; settings: recombinant enzyme, 15 min incubation, absolute IC50; read-out: CYP3A4 inhibition IC50
Procedure: as §1

T1 sequence (P10635 whole entry): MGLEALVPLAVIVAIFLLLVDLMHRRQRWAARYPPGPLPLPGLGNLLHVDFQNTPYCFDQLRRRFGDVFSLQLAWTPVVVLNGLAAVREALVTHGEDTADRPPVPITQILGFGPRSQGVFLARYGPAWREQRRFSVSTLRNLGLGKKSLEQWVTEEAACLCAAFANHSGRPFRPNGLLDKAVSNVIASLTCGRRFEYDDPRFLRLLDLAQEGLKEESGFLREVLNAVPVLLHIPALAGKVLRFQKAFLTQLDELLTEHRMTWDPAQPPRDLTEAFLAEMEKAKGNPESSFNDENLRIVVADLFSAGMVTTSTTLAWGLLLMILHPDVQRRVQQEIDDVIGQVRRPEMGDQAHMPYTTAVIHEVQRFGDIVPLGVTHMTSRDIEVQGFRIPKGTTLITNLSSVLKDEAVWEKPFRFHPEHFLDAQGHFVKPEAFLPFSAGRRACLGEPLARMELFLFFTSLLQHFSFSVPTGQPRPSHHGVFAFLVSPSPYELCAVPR
Chain of CYP3A4 (P08684 2-503 limits assumed): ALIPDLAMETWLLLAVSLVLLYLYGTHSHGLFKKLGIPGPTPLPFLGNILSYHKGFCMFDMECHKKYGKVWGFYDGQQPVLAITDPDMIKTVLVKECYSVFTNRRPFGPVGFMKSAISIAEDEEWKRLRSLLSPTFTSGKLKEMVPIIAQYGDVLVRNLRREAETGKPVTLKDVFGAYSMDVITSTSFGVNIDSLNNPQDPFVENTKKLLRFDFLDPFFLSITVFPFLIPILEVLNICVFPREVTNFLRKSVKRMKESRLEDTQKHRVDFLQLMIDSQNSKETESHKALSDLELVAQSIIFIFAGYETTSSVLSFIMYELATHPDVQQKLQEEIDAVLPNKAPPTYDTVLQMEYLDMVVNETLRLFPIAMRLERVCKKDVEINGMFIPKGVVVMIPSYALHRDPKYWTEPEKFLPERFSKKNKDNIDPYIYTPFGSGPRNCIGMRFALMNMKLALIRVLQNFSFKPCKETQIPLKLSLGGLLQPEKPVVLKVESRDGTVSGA

SMILES: C[C@@H]1CN(C(=O)c2ccc(NC(=O)c3cc(O[C@H](C)c4c(Cl)ccc(F)c4Cl)c(N)nn3)cc2)C[C@H](C)N1 [ensartinib, Ensartinib]
- effect on the accumulation of any substrate in control cells [1]: no significant effect
- inhibitory effect on CYP2D6 (in words) [2]: no appreciable inhibitory effect
- IC50 ([2]; 15 min incubation, absolute IC50, read-out: CYP2D6 inhibition IC50): > 50000 nM
- IC50 [3]: 27400 nM
- IC50 [4]: 1860 nM
- change in mRNA levels of ABCB1, ABCG2, ABCC1 [5]: did not increase or reduce the mRNA levels of ABCB1, ABCG2, or ABCC1 by more than 100% or 50%
- IC50 [6]: 1120 nM
